According to US6455528B1, “Piperazine compounds and medicinal use thereof” (Mitsubishi Pharma Corporation, priority 1997, dated 2002):
Where a name gives a salt, the structure may show the parent alone.

| melting point | SMILES |
| --- | --- |
| 220 to 223 °C (dec.) | COc1ccccc1N1CCN(C(C)c2ccc(CNC(C)=O)cc2)CC1 (stereo not shown) (as salt: hydrochloride) [Example 19, N-(4-(1-(4-(2-Methoxyphenyl)piperazin-1-yl)ethyl)phenylmethyl)acetamide Dihydrochloride] |
| 108 to 109 °C | CCOc1cc(F)ccc1N1CCN(Cc2ccc(CNC(C)=O)cc2)CC1 [Example 41, N-(4-((4-(2-Ethoxy-4-fluorophenyl)-piperazin-1-yl)methyl)phenylmethyl)acetamide] |
| 189 to 190 °C (dec.) | CC(=O)NCc1ccc(CN2CCN(c3nc(N(C)C)cc(N(C)C)n3)CC2)cc1 [Example 109, N-(4-((4-(4,6-bis(Dimethylamino)-pyrimidin-2-yl)piperazin-1-yl)methyl)phenylmethyl)acetamide] |
| 118 to 120 °C | CC(=O)NC(C)(C)c1ccc(CN2CCN(c3nccs3)CC2)cc1 [Example 94, N-(1-Methyl-1-(4-((4-(thiazol-2-yl)piperazin-1-yl)methyl)phenyl)ethyl)acetamide] |
| 113 to 114 °C | CCC(NC(C)=O)c1ccc(CN2CCN(c3ccc(F)cc3)CC2)cc1 (stereo not shown) [Example 54, N-(1-(4-((4-(4-Fluorophenyl)piperazin-1-yl)methyl)phenyl)propyl)acetamide] |
| 160 to 162 °C | COc1ccnc(N2CCN(Cc3ccc(C(C)(C)NC(C)=O)cc3)CC2)n1 [Example 106, N-(1-(4-((4-(4-Methoxypyrimidin-2-yl)piperazin-1-yl)methyl)phenyl)-1-methylethyl)acetamide] |
| 169 to 171 °C | CC(=O)NC(C)(C)c1ccc(C(C)N2CCN(c3ccccc3)CC2)cc1 (stereo not shown) [Example 62, N-(1-(4-(1-(4-Phenylpiperazin-1-yl)ethyl)-phenyl)-1-methylethyl)acetamide] |
| 199 to 202 °C | COc1cc(OC)nc(N2CCN(Cc3ccc(C(C)(C)NC(C)=O)cc3)CC2)n1 [Example 96, N-(1-(4-((4-(4,6-Dimethoxypyrimidin-2-yl)piperazin-1-yl)methyl)phenyl)-1-methylethyl)acetamide] |
| 129 to 139.5 °C | CC(=O)NC1(c2ccc(CN3CCN(c4ccccc4)CC3)cc2)CC1 [Example 57, N-(1-(4-((4-Phenylpiperazin-1-yl)methyl)-phenyl)cyclopropyl)acetamide] |
| 145 to 146 °C | CC(=O)NC1(c2ccc(CN3CCN(c4ncccn4)CC3)cc2)CC1 [Example 71, N-(1-(4-((4-(Pyrimidin-2-yl)piperazin-1-yl)methyl)phenyl)cyclopropyl)acetamide] |
| 124 to 126 °C | CC(=O)NC(C)c1ccc(CN2CCN(c3ncccn3)CC2)cc1 (stereo not shown) [Example 69, N-(1-(4-((4-(Pyrimidin-2-yl)piperazin-1-yl)methyl)phenyl)ethyl)acetamide] |
| 141 to 142 °C | CC(=O)NCc1ccc(CN2CCN(c3ccc(F)cc3)CC2)cc1Cl [Example 26, N-(2-Chloro-4-((4-(4-fluorophenyl)-piperazin-1-yl)methyl)phenylmethyl)acetamide] |
| 139 to 140 °C | CC(=O)NCc1ccc(CN2CCN(c3ccc(F)cc3N)CC2)cc1 [Example 38, N-(4-((4-(2-Amino-4-fluorophenyl)piperazin-1-yl)methyl)phenylmethyl)acetamide] |
| 151.5 to 153.5 °C | CC(=O)NCc1ccc(CN2CCN(c3ccc([N+](=O)[O-])cc3)CC2)cc1 [Example 33, N-(4-((4-(4-Nitrophenyl)piperazin-1-yl)methyl)phenylmethyl)acetamide] |
| 148 to 149 °C | CC(=O)NCc1ccc(CN2CCN(c3ccccc3)CC2)cc1N [Example 22, N-(2-Amino-4-((4-phenylpiperazin-1-yl)methyl)phenylmethyl)acetamide] |
| 114 to 115 °C | CC(=O)N[C@@H](C)c1ccc(CN2CCN(c3ccc(F)cc3)CC2)cc1 [Example 121, (S)-N-(1-(4-((4-(4-Fluorophenyl)piperazin-1-yl)methyl)phenyl)ethyl)acetamide] |
